Source: publication PMC7619385 (ACS infectious diseases, 2025)
Like-named read-outs stand apart in the source and are kept apart here.

Experiments:
LmxCLK1 = molecular target: T1, LmxCLK1 (Leishmania mexicana, UniProt E9AMP2); experiment: biochemical; assay type: binding
T1 sequence (E9AMP2 1-422): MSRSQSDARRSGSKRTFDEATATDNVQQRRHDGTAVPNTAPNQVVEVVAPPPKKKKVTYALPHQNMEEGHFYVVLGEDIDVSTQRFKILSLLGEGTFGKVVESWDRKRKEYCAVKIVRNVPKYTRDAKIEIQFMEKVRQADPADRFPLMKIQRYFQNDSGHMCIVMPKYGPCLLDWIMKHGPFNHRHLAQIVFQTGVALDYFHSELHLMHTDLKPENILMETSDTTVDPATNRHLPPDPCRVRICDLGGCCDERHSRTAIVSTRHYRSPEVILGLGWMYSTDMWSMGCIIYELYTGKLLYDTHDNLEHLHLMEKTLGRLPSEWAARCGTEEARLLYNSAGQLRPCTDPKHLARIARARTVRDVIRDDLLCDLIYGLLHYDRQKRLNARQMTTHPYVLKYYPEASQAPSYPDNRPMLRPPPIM

NLuc::LmxCLK1 = NLuc::LmxCLK1 (Leishmania mexicana, UniProt E9AMP2); experiment: cell-based; assay type: cell-based; settings: for Target occupancy Run 1 / Target occupancy Run 2 / Target occupancy Average: 10 µM compound, tracer SV366, promastigotes; for Target occupancy Average: mean of two experiments
Protocol: All compounds were tested at a fixed concentration of 10 µM to enable direct comparison of their target occupancy in live cells.
Serially diluted probes (5 µL) were added to 85 µL of cells in culture media or 85 µL of purified protein. Final well volumes were adjusted to 100 µL with sterile Opti-MEM™ I Reduced Serum Medium (Thermo-Scientific) – for wells containing cells; or Kinase Buffer - for wells containing purified protein. For tracer displacement assays, samples were prepared as above, but final volume was brought to 100 µL by addition of vehicle or serially-diluted test compounds. Final DMSO concentration in these assays was 1%. […] Light emissions at 460+10 nm (BRET donor) and at 610+20 nm (BRET acceptor) were sequentially recorded (integration time = 0.5 s, gain = 3600) using a luminometer (BMG LABTECH Clariostar or Biotek Synergy HT). BRET values are reported in milli-BRET (mBRET) units (mBU), obtained by dividing the acceptor luminescence by the donor luminescence and multiplying the result by a factor of 1,000. BRET values were converted to blank-corrected probe occupancies (%) according to equation [1]: (1) Probeoccupancy(%)=X−Z/Y−Z×100 where X = mBRET value in the presence of the test compound and the probe, Y = mBRET value in the presence of probe only, and Z = mBRET value in the absence of probe and test compound. […]

[1] = DSF, 10 µM compound, 2 µM LmxCLK1, Run 1, read-out: ΔTm Run 1
[2] = DSF, 10 µM compound, 2 µM LmxCLK1, Run 2, read-out: ΔTm Run 2
[3] = DSF, 10 µM compound, 2 µM LmxCLK1, mean of two runs, read-out: ΔTm Average
[4] = read-out: Target occupancy Average
[5] = read-out: Target occupancy Run 1
[6] = read-out: Target occupancy Run 2
[7] = DSF, 10 µM compound, 2 µM LmxCLK1, Run 1
[8] = DSF, 10 µM compound, 2 µM LmxCLK1, Run 2
[9] = DSF, 10 µM compound, 2 µM LmxCLK1, mean of two runs

SMILES | ΔTm at 10 µM (LmxCLK1; [1]) | ΔTm at 10 µM (LmxCLK1; [2]) | ΔTm at 10 µM (LmxCLK1; [3]) | receptor occupancy at 10 µM (NLuc::LmxCLK1; [4]) | receptor occupancy at 10 µM (NLuc::LmxCLK1; [5]) | receptor occupancy at 10 µM (NLuc::LmxCLK1; [6]) | ΔTm Run 1 (LmxCLK1; [7]) | ΔTm Run 2 (LmxCLK1; [8]) | ΔTm Average (LmxCLK1; [9]) | Target occupancy Run 1 (NLuc::LmxCLK1) | Target occupancy Run 2 (NLuc::LmxCLK1) | Target occupancy Average (NLuc::LmxCLK1) | ΔTm Average (LmxCLK1) | ΔTm Run 1 (LmxCLK1) | ΔTm Run 2 (LmxCLK1)
Cc1nc(Nc2ncc(C(=O)Nc3c(C)cccc3Cl)s2)cc(N2CCN(CCO)CC2)n1 [Dasatinib] | -0.1 °C | -0.2 °C | -0.1 °C | -14.6% | 1.5% | -30.7% | – | – | – | – | – | – | – | – | –
COc1cc2ncnc(Nc3ccc(O)c(Br)c3)c2cc1OC [WHI-P154] | – | – | – | – | – | – | 0.1 °C | 0.1 °C | 0.1 °C | 7.3% | -12.9% | -2.8% | – | – | –
C=CS(=O)(=O)NC1CCN(C(=O)CNc2cc(I)c(Cl)cc2OC)CC1 [K-Ras(G12C) inhibitor 9] | – | – | – | – | – | – | 0.3 °C | -0.6 °C | -0.1 °C | -21.1% | -10.0% | -15.5% | – | – | –
O=C1NC(=O)/C(=C/c2ccc3nccc(-c4ccncc4)c3c2)S1 [GSK1059615] | 0.3 °C | -0.2 °C | 0 °C | -2.8% | -4.2% | -1.5% | – | – | – | – | – | – | – | – | –
CN(C)Cc1cccc(N/C(=C2\C(=O)Nc3cc(C(N)=O)ccc32)c2ccccc2)c1 [BIX 02188] | 0.1 °C | -0.2 °C | 0 °C | -6.5% | 4.1% | -17% | – | – | – | – | – | – | – | – | –
N#C/C(=C/c1ccc(O)c(O)c1)C(=O)NCc1ccccc1 [AG-490 (Tyrphostin B42)] | – | – | – | – | – | – | 0.1 °C | 0.2 °C | 0.1 °C | -25.0% | -10.6% | -17.8% | – | – | –
C#Cc1cccc(Nc2ncnc3cc(OCCOC)c(OCCOC)cc23)c1.Cl [Erlotinib HCl (OSI-744)] | – | – | – | – | – | – | 0.1 °C | 0.1 °C | 0.1 °C | -0.1% | -7.3% | -3.7% | – | – | –
C[C@H](NC(=O)/C(C#N)=C/c1cccc(Br)n1)c1ccccc1 [WP1066] | 0.1 °C | 0 °C | 0 °C | -7.5% | 3.4% | -18.3% | – | – | – | – | – | – | – | – | –
C[C@@H]1COC(Nc2ccc3ncnc(Nc4ccc(OCc5nccs5)c(Cl)c4)c3c2)=N1 [Varlitinib] | 0.2 °C | 0 °C | 0.1 °C | -0.8% | 2.7% | -4.3% | – | – | – | – | – | – | – | – | –
O=C(NCCO)c1cccc(-c2cc(Nc3ccc(OC(F)(F)F)cc3)ncn2)c1 [GNF-5] | – | – | – | – | – | – | – | – | – | -7.9% | -2.3% | -5.1% | -0.3 | -0.2 | -0.3
CC(C)NC[C@@H](C(=O)N1CCN(c2ncnc3c2[C@H](C)C[C@H]3O)CC1)c1ccc(Cl)cc1 [GDC-0068] | 0.4 °C | 0 °C | 0.2 °C | 0.3% | 6% | -5.5% | – | – | – | – | – | – | – | – | –
C=CC(=O)Nc1cccc(Nc2nc(Nc3ccc(Oc4ccnc(C(=O)NC)c4)cc3)ncc2F)c1 [CNX-774] | – | – | – | – | – | – | -0.3 °C | 0.0 °C | -0.2 °C | -4.4% | -9.3% | -6.8% | – | – | –
O=C(O)c1ccc(-c2c[nH]c3ncc(-c4ccccc4)cc23)cc1C1CCCC1 [GSK650394] | -0.4 °C | -0.3 °C | -0.3 °C | -8.8% | -24.3% | 6.7% | – | – | – | – | – | – | – | – | –
CCNc1nc(Nc2cc(F)c(C(=O)N3CCOCC3)cc2OC)ncc1C(F)(F)F [GNE-7915] | -0.1 °C | -0.5 °C | -0.3 °C | -3.7% | -10.5% | 3.1% | – | – | – | – | – | – | – | – | –
